Consider 1 compound from paper PMC10459693, “Toward Stability Enhancement of NTS1R-Targeted Radioligands: Structural Interventions on [^99mTc]Tc-DT1” (Pharmaceutics, 2023).

This test concerns AsPC-1 cells. Description: NTS1R-specific uptake and internalization in AsPC-1 cells. The test is classed as cell-based, human. The procedure:
The NTS1R-specific internalization of [^99mTc]Tc-DT1/7/8/9 radioligands was compared in AsPC-1 cells. The cells were seeded in 6-well plates (1 × 10^6 cells per well) and left to grow overnight. The following day, the medium was aspirated, and the cells were washed twice with internalization medium (2 mL IM: RPMI supplemented with 1% v/v FBS) on ice. They were placed on the bench, and warm IM (1200 μL 37 °C) was added per well, followed by radioligand solution (150 μL, 250 fmol) and either IM (150 μL total: T; upper wells) or NT (10^−5 M in IM, non-specific: NS; lower wells). The plates were placed in the Incubator-Orbital Shaker at 37 °C for 1 h, and the incubation was interrupted by placing the plates on ice. The supernatant was collected in RIA tubes, and the cells were washed with 1 mL phosphate-buffered saline (PBS, pH 7.4, 4 °C) containing 0.5% w/v BSA, and the washing was also collected in the same RIA tube. Cells were treated twice for 5 min with glycine buffer (600 μL, 50 mM glycine, 0.1 M NaCl, pH 2.8), and supernatants were collected (membrane bound fraction, MB). The cells were washed again with 1 mL ice-cold PBS-BSA buffer, which was discarded. Finally, cells were lysed (2 × 600 μL 1 M NaOH), and the lysates were collected (internalized fraction, IF). Sample radioactivity was measured on the γ-counter. Specific values for MB and IF were acquired by subtracting NS values from T ones. Results are expressed as mean percentage of added radioactivity ± sd, n = 3. In addition, time-dependent internalization in AsPC-1 cells was directly compared for [^99mTc]Tc-DT1/9 by incubation at 37 °C for 15 min, 30 min, 1 h, and 2 h, following the above-described protocol for each time point.

Structures are written as SMILES. Peptide text beside a SMILES is read from it. * marks the point of attachment. Palmitoyl = CCCCCCCCCCCCCCCC(=O)*; X1 = NCCNCC(CNCCN)C(=O)*

`CCCCCCCCCCCCCCCC(=O)NCCCC[C@H](NC(=O)C(CNCCN)CNCCN)C(=O)N[C@@H](CCCNC(=N)N)C(=O)N[C@@H](CCCNC(=N)N)C(=O)N1CCC[C@H]1C(=O)N[C@@H](Cc1ccc(O)cc1)C(=O)N[C@H](C(=O)N[C@@H](CC(C)C)C(=O)O)[C@@H](C)CC` [[^99mTc]Tc-DT9, metal not drawn] (X1-K(Palmitoyl)RRPYIL-OH): under “1 h at 37 °C”, the “internalization, specific of added radioactivity” value is 16.53 ± 1.12% and the “specific cell uptake of added radioactivity (internalized + membrane bound)” value was determined as 16.76 ± 1.16%. Moreover, the “specific uptake of added radioactivity (time-dependent internalization)” value (2 h at 37 °C) is 21.5 ± 1.0%.
